Publication PMC3591309, “Deoxyhypusine Hydroxylase from Plasmodium vivax, the Neglected Human Malaria Parasite: Molecular Cloning, Expression and Specific Inhibition by the 5-LOX Inhibitor Zileuton” (PLoS ONE, 2013)

Target: T1, Deoxyhypusine hydroxylase (DOHH) (Plasmodium vivax, UniProt A5JZ19)
T1 construct: full-length ORF of 346 amino acids, histidine-tagged, expressed in E. coli BL21(DE3) (pET-28a)
T1 sequence (A5JZ19 1-346): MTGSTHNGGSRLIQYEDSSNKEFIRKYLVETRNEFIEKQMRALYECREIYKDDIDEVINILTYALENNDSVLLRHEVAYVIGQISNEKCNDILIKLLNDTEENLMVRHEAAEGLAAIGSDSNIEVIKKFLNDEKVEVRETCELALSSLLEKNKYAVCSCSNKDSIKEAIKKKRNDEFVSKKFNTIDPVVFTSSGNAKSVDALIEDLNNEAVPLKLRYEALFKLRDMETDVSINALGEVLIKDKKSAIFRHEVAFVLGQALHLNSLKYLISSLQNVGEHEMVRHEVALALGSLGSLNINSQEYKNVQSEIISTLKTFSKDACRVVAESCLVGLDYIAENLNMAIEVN
Assay: recombinant DOHH activity assay with eIF-5A(Dhp) substrate; radioactive filter assay and GC/MS, dose-response
Assay type: biochemical

IC50: 12,5 nmol
SMILES: CC(c1cc2ccccc2s1)N(O)C(N)=O (racemic) [zileuton, (RS)-1-(1-Benzothiophen-2-ylethyl)-1-hydroxyurea]
